The results in this text go back to PubChem BioAssay AID2060912 (Molecular Pharmacology Branch, DTP, NCI, 2025).

This assay has as its system HUVEC/MSC spheroids viability. The assay is described as follows: Human HUVEC/MSC cell line growth inhibition [KRAS2].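 As to viability, T/C: percent of DMSO vehicle control luminescence so 100% = untreated viability.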 Conditions: for viability, T/C: stronger effect = lower value. In short, it runs like this:
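The concentration series started at or near clinical Cmax (10 microM if not known) and fell in half-log increments, alone or in combination. Cells were stromal-only spheroids of pooled-donor HUVEC and hMSC (passage </=5), with different drug plates and layout from the tumor spheroid screens.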

For the compound `COc1cc2nccc(Oc3ccc(NC(=O)C4(C(=O)Nc5ccc(F)cc5)CC4)cc3)c2cc1OC` + C=CC(=O)N1CCN(c2nc(OCC3CCCN3C)nc3c2CCN(c2cccc4cccc(C)c24)C3)CC1CC#N, the IC50 is 4.77 µM (curve of first compound, second compound 0.00949 µM); 5.94 µM (curve of first compound, second compound 0.03 µM); 8.74 µM (curve of first compound, second compound 0.0949 µM); 7.29 µM (curve of first compound, second compound 0.3 µM); more than 10 µM (curve of first compound, second compound 0.949 µM); 3.8 µM (curve of first compound, second compound 3 µM). The viability, T/C was 88.1% (second compound 0.00949 µM, first compound 0.0316 µM); 102% (second compound 0.00949 µM, first compound 0.1 µM); 71.1% (second compound 0.00949 µM, first compound 0.316 µM); 65.7% (second compound 0.00949 µM, first compound 1 µM); 76.6% (second compound 0.00949 µM, first compound 3.16 µM); 22% (second compound 0.00949 µM, first compound 10 µM). The viability, T/C by setting is: (second compound 0.03 µM, first compound 0.0316 µM) 70.9%; (second compound 0.03 µM, first compound 0.1 µM) 80.5%; (second compound 0.03 µM, first compound 0.316 µM) 77.1%; (second compound 0.03 µM, first compound 1 µM) 59.8%; (second compound 0.03 µM, first compound 3.16 µM) 77.8%; (second compound 0.03 µM, first compound 10 µM) 30.8%. Moreover, the viability, T/C reads like this: (second compound 0.0949 µM, first compound 0.0316 µM) 82.5%; (second compound 0.0949 µM, first compound 0.1 µM) 78.6%; (second compound 0.0949 µM, first compound 0.316 µM) 74%; (second compound 0.0949 µM, first compound 1 µM) 77.4%; (second compound 0.0949 µM, first compound 3.16 µM) 88.1%; (second compound 0.0949 µM, first compound 10 µM) 46%. The viability, T/C by setting is: (second compound 0.3 µM, first compound 0.0316 µM) 61.5%; (second compound 0.3 µM, first compound 0.1 µM) 80.8%; (second compound 0.3 µM, first compound 0.316 µM) 85.7%; (second compound 0.3 µM, first compound 1 µM) 63.9%; (second compound 0.3 µM, first compound 3.16 µM) 86.6%; (second compound 0.3 µM, first compound 10 µM) 40.4%. Moreover, the viability, T/C was 61.9% (second compound 0.949 µM, first compound 0.0316 µM); 71.8% (second compound 0.949 µM, first compound 0.1 µM); 73.3% (second compound 0.949 µM, first compound 0.316 µM); 83% (second compound 0.949 µM, first compound 1 µM); 75.9% (second compound 0.949 µM, first compound 3.16 µM); 38.5% (second compound 0.949 µM, first compound 10 µM). Further, the viability, T/C is 75.9% (second compound 3 µM, first compound 0.0316 µM); 80.4% (second compound 3 µM, first compound 0.1 µM); 92.4% (second compound 3 µM, first compound 0.316 µM); 84.1% (second compound 3 µM, first compound 1 µM); 59.4% (second compound 3 µM, first compound 3.16 µM); 0.35% (second compound 3 µM, first compound 10 µM).
Consider `Cn1ncnc1[C@H]1c2n[nH]c(=O)c3cc(F)cc(c23)N[C@@H]1c1ccc(F)cc1`, for which the viability, T/C by setting is: (compound 0.001 µM) 87.9% [middle of 5 runs]; (compound 0.00316 µM) 83.8% [middle of 5 runs]; (compound 0.01 µM) 90.7% [middle of 5 runs]; (compound 0.0316 µM) 88.1% [middle of 5 runs]; (compound 0.1 µM) 84.2% [middle of 5 runs]. In addition, the IC50 (curve of compound) was more than 0.1 µM.
As for `CC(=O)Nc1cccc(-n2c(=O)n(C3CC3)c(=O)c3c(Nc4ccc(I)cc4F)n(C)c(=O)c(C)c32)c1`, the viability, T/C by setting is: (compound 94.9 pM) 110% [middle of 5 runs]; (compound 0.000949 µM) 118% [middle of 5 runs]; (compound 0.00949 µM) 71.8% [middle of 5 runs]; (compound 0.03 µM) 17.6% [middle of 5 runs]. Besides, the concentration for half-maximal inhibition (IC50) (curve of compound) is 14.7 nM [middle of 5 runs].
On to `CC1(C)CCC(CN2CCN(c3ccc(C(=O)NS(=O)(=O)c4ccc(NCC5CCOCC5)c([N+](=O)[O-])c4)c(Oc4cnc5[nH]ccc5c4)c3)CC2)=C(c2ccc(Cl)cc2)C1`, for which the viability, T/C (compound 0.0316 µM) is 90.6% [middle of 5 runs]; the viability, T/C (compound 0.1 µM) was 95.1% [middle of 5 runs]; the viability, T/C (compound 0.316 µM) was 83% [middle of 5 runs]; the viability, T/C (compound 1 µM) was 90.2% [middle of 5 runs]; the viability, T/C (compound 3.16 µM) is 69% [middle of 5 runs]; the viability, T/C (compound 10 µM) is 4.4% [middle of 5 runs]. Also, the 50% inhibitory concentration (IC50) (curve of compound) is 4.56 µM [middle of 4 runs].
As for `COc1cc(Nc2ncc3c(n2)-c2ccc(Cl)cc2C(c2c(F)cccc2OC)=NC3)ccc1C(=O)O` + CNCc1ccccc1-c1csc(C(C)Nc2nc(C)nc3cc(OC)c(OC)cc23)c1, the IC50 (curve of first compound, second compound 0.0316 µM) was found to be 9.93 µM; the IC50 (curve of first compound, second compound 0.1 µM) was more than 10 µM; the IC50 (curve of first compound, second compound 0.316 µM) was found to be 8.79 µM; the concentration for half-maximal inhibition (IC50) (curve of first compound, second compound 1 µM) is 9.31 µM; the IC50 (curve of first compound, second compound 3.16 µM) was more than 10 µM; the IC50 (curve of first compound, second compound 10 µM) is less than 0.0316 µM. Further, the viability, T/C (second compound 0.0316 µM, first compound 0.0316 µM) was 92.9%; the viability, T/C (second compound 0.0316 µM, first compound 0.1 µM) was 104%; the viability, T/C (second compound 0.0316 µM, first compound 0.316 µM) was 101%; the viability, T/C (second compound 0.0316 µM, first compound 1 µM) was 87.3%; the viability, T/C (second compound 0.0316 µM, first compound 3.16 µM) was 84.6%; the viability, T/C (second compound 0.0316 µM, first compound 10 µM) was 49.2%. In addition, the viability, T/C is, setting by setting: (second compound 0.1 µM, first compound 0.0316 µM) 93.2%; (second compound 0.1 µM, first compound 0.1 µM) 80.8%; (second compound 0.1 µM, first compound 0.316 µM) 98%; (second compound 0.1 µM, first compound 1 µM) 80.3%; (second compound 0.1 µM, first compound 3.16 µM) 84%; (second compound 0.1 µM, first compound 10 µM) 56.7%. The viability, T/C (second compound 0.316 µM, first compound 0.0316 µM) was 71.1%; the viability, T/C (second compound 0.316 µM, first compound 0.1 µM) was 90.8%; the viability, T/C (second compound 0.316 µM, first compound 0.316 µM) is 79.5%; the viability, T/C (second compound 0.316 µM, first compound 1 µM) is 73.3%; the viability, T/C (second compound 0.316 µM, first compound 3.16 µM) is 83.7%; the viability, T/C (second compound 0.316 µM, first compound 10 µM) was 46.3%. Moreover, the viability, T/C by setting is: (second compound 1 µM, first compound 0.0316 µM) 75.5%; (second compound 1 µM, first compound 0.1 µM) 76.6%; (second compound 1 µM, first compound 0.316 µM) 97.3%; (second compound 1 µM, first compound 1 µM) 74.5%; (second compound 1 µM, first compound 3.16 µM) 92.4%; (second compound 1 µM, first compound 10 µM) 47.8%. Further, the viability, T/C (second compound 3.16 µM, first compound 0.0316 µM) was 101%; the viability, T/C (second compound 3.16 µM, first compound 0.1 µM) was 106%; the viability, T/C (second compound 3.16 µM, first compound 0.316 µM) is 97.8%; the viability, T/C (second compound 3.16 µM, first compound 1 µM) is 90.4%; the viability, T/C (second compound 3.16 µM, first compound 3.16 µM) was 100%; the viability, T/C (second compound 3.16 µM, first compound 10 µM) is 50.7%. In addition, the viability, T/C runs as follows: (second compound 10 µM, first compound 0.0316 µM) 0.4%; (second compound 10 µM, first compound 0.1 µM) 0.4%; (second compound 10 µM, first compound 0.316 µM) 0.37%; (second compound 10 µM, first compound 1 µM) 0.36%; (second compound 10 µM, first compound 3.16 µM) 0.41%; (second compound 10 µM, first compound 10 µM) 0.32%.
